The source of these data is patent US10167299B2, “1-(3-aminopropyl) substituted cyclic amine compounds, preparation method therefor, and pharmaceutical compositions and uses thereof” (SHANGHAI INSTITUTE OF MATERIA MEDICA, CHINESE ACADEMY OF …, priority 2013, dated 2019).

≈ marks a conversion by molar mass, not a printed value. Where two headings read alike, the source gives them in different places.

For data set [1], the system named is Salmonella typhimurium strain TA100. The data set is described as follows: Bacterial reverse mutation assay TA100 (-S9). The note with it: TA100, -S9, positive control 1300 μg/dish. Format: cell-based. The procedure: (§1) The mutagenic effects of compounds 18 and 22 of the present invention on Salmonella typhimurium strains TA98 and TA100 in non-metabolic activation (-S9) condition were determined. Two strains, TA98 and TA100 were chosen in bacterial reverse mutation assay for compounds 18 and 22. 9 doses containing […], negative and positive controls were set in experiments. 3 dishes were used for each dose. The experiment was carried out under -S9 condition.

Data set [2] has as its target CCR5 (Homo sapiens (Human), UniProt P51681). Nature of the data set: Calcium flux inhibition experiment. The class given is cell-based. The note with it: for IC50: HEK293/CCR5-Gα16 cell line, calcium flux, read-out: CCR5 IC50; for calcium influx inhibition effect in words, versus positive control compounds: conclusion from Table 1.
Data set [3] has as its system CCR5 protein. The data set is described as follows: Thermal stability of protein test (CPM-assay). Format: binding. The note with it: for Tm (° C.): thermal stability of CCR5 protein with compound, CPM dye. The source says:
Experimental theory: many cysteines are present in CCR5 protein sequence. Cysteines located in loop region form disulfide bonds to stabilize the tertiary structure of the protein. Some free cysteines in reduced state are located in the transmembrane region. Under excitation by incident light of 387 nm, the combination of free sulfhydryl and fluorescent dye CPM can emit excitation light of 436 nm. […] The free sulfhydryls originally located in the transmembrane region expose and combine with the fluorescent dye. And then the detector will detect changes in signal enhancement. Therefore, the thermal stability of membrane proteins can be determined according to the temperature (Tm) at the midpoint of changes in signal intensity.
Experimental steps: Upon preliminary purification, the obtained protein solution was transferred into a small concentration tube (100 kd, 500 ul) for concentration (1000 rcf, 12 min, 4° C.). After centrifugation, the concentration tube was taken out and flicked to prevent protein coagulation due to high local concentration. The final concentrated volume was about 50 μl. 117 μl of purified solution (volume is suitable to make the total volume up to 120 μl), 1 μl fluorescent dye cpm (in-house prepared) and 2 μl of concentrated protein solution (the amount of added protein is 3-5 μg according to the calculated concentration of the protein solution and the concentrated volume) were added to 2 ml Ependorf tube and incubated at room temperature for 20 min. And then the mixture was added to the cuvette (Qwan) and put in the testing equipment Cary, wherein the surface of the frosted glass faced out. The temperature was set in the range of 4-90° C. with 1° C. increase per minute and the program was run. Tm value can be obtained by processing the data and graph with a mapping software and can be used to compare the difference of protein thermal stability under different conditions.

Data set [4] in a line: Cytotoxicity (CC50) in TZM-bl cells. The class given is cell-based. The note with it: human.
The subject of data set [5] is HIV-1SF162 virus strain. The data set is described as follows: Inhibition activity on TZM-bl cells infected with HIV-1SF162. As to conditions: for EC50: Human immunodeficiency virus 1, TZM-bl; for therapeutic index (TI): TZM-bl cells infected with HIV-1SF162.
Data set [6] has as its target hERG (Homo sapiens (Human), UniProt Q12809).
Procedure: CHO-hERG cells which have been incubated overnight were added with sample buffer and incubated for 90 minutes at room temperature in darkness.
The sample buffer was removed and assay buffer was added.
The compound is added to the cell plate and incubated for 20 minutes in darkness.
Cell plate was placed into FDSS. The fluorescence signal was recorded every second for 10 seconds. Exciting buffer was added to the cells at the 10th second and the fluorescence signal was recorded every second for 180 seconds
Data set [7] deals with Salmonella typhimurium strain TA98. Nature of the data set: Bacterial reverse mutation assay TA98 (-S9). The note with it: TA98, -S9, positive control 20 μg/dish. Format: cell-based. The procedure: as §1
[8] abbreviates: TZM-bl cells (Table 3), read-out: CC50.

CCR5, sequence (P51681 whole entry): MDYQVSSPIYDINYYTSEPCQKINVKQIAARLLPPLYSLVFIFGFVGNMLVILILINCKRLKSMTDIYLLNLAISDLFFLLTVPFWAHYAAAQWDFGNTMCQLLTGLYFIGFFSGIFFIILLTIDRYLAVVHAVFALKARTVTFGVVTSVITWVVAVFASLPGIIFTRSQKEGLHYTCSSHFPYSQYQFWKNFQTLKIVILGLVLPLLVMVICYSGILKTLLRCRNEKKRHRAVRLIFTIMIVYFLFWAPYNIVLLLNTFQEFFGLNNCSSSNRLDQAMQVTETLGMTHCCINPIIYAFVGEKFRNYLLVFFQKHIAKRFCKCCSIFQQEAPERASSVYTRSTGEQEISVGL
hERG, sequence (Q12809 whole entry): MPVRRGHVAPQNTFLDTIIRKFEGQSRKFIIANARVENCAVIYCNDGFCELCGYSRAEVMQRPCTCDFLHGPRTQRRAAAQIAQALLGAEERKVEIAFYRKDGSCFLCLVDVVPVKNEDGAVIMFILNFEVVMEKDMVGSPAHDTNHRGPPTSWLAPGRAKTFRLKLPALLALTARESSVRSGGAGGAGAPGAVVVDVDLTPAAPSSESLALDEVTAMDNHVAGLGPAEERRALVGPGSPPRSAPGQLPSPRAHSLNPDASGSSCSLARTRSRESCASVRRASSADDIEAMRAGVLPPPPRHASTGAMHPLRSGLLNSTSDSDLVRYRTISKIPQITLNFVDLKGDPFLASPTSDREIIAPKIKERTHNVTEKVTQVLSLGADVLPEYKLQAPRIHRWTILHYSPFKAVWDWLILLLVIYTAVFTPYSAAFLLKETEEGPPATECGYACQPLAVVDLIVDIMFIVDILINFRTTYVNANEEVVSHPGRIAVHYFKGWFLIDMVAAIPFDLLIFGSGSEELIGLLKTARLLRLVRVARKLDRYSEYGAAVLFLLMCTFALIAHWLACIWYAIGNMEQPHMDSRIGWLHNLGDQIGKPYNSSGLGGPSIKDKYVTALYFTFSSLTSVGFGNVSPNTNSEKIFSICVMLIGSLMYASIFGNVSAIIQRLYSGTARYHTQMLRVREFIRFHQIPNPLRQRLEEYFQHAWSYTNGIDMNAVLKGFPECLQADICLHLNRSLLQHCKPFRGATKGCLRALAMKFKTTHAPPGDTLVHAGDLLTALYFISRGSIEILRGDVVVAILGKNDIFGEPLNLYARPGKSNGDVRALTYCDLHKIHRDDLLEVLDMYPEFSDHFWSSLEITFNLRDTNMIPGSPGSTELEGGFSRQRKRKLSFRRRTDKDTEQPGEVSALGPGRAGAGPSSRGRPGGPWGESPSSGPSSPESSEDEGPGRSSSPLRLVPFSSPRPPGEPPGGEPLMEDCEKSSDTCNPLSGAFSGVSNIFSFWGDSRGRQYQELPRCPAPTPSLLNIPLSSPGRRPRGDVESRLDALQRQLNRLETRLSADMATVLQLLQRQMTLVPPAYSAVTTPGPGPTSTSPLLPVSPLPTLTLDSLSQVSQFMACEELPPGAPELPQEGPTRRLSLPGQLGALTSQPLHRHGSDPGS

For the molecule `COS(C)(=O)=O` [Methyl methanesulfonate, reference compound], the “number of revertant colonies (Mean ± SD)” value in data set [1] stood at 1231 ± 146.1.
A word on the IC50: it is the midpoint of a concentration-inhibition curve. One may read the CC50 as the concentration at which the toxic effect on the cells reaches its halfway point. As usually defined, the EC50 is the concentration that produces a half-maximal response. With `Cc1nnc(C(C)C)n1C1CC2CCC(C1)N2CC[C@H](NC(=O)C1CCCC1)c1ccsc1` (stereo partly drawn) [Compound 26, N-[(1S)-3-[exo-3(3-isopropyl-5-methyl-4H-1,2,4-triazol-4-yl)-8-azabicyclo[3.2.1]octane-8-yl]-1-(thiophen-3-yl)propyl]cyclopentane-1-carboxamide], in data set [2], the IC50 turned out to be 5.06 nM and the “calcium influx inhibition effect in words, versus positive control compounds” value is “better than the positive control compounds”. Also, the “protein stability effect in words, versus positive control compound” value in data set [3] (conclusion from Table 2) is given as “comparable with the positive control compound”. For the same molecule, the “Tm (° C.)” value in data set [3] is 71.02 °C. The molecule further displayed a CC50 in data set [4] of more than 200 µg/mL. Further, in data set [5], the EC50 was determined as 0.00558 µg/mL (≈ 0.0119 µM) and the “therapeutic index (TI)” value is listed as more than 35842.29. Besides, the “cytotoxicity in vitro and therapeutic index in words, versus positive control compound” value in data set [5] (TZM-bl cells infected with HIV-1SF162, conclusion from Table 3) is on record as “better than positive control compound”.
Consider `Cc1nnc(C(C)C)n1C1CCN(CC[C@H](NC(=O)C2CCCCC2)c2ccsc2)CC1` [Compound 23, N-[(1S)-3-[4-(3-isopropyl-5-methyl-4H-1,2,4-triazol-4-yl)-piperidin-1-yl]-1-(thiophen-3-yl)propyl]cyclohexane-1-carboxamide], for which, in data set [2], the IC50 was found to be 27.3 nM. Besides, the “Tm (° C.)” value in data set [3] came out at 63.90 °C. Also, in data set [4] (setting [8]), the CC50 is more than 200 µg/mL. Also, in data set [5], the response was half-maximal at 0.06 µg/mL (≈ 0.131 µM) (EC50) and the “therapeutic index (TI)” value is recorded as more than 3332.78.
In the same order, the values of `Cc1nnc(C(C)C)n1C1CCN(CCC(NC(=O)C2CCC(F)(F)CC2)c2cccs2)CC1` (stereo not drawn) [Compound 1, 4,4-difluoro-N-[3-[4-(3-isopropyl-5-methyl-4H-1,2,4-triazol-4-yl)-piperidin-1-yl]-1-(thiophen-2-yl)propyl]cyclohexane-1-carboxamide] are 36.6 nM, 60.59 °C, more than 100 µg/mL, 0.29 µg/mL (≈ 0.587 µM) and more than 340.14.
Consider `Cc1nnc(C(C)C)n1C1CCN(CC[C@H](NC(=O)C2CCCCC2)c2cccs2)CC1` [Compound 15, N-[(1S)-3-[4-(3-isopropyl-5-methyl-4H-1,2,4-triazol-4-yl)-piperidin-1-yl]-1-(thiophen-2-yl)propyl]cyclohexane-1-carboxamide], for which, in data set [2], the concentration for half-maximal inhibition (IC50) stood at 9.22 nM and the “calcium influx inhibition effect in words, versus positive control compounds” value is reported as “comparable to the positive control compounds”. Further, in data set [3], the “Tm (° C.)” value was found to be 64.30 °C. For the same molecule, the CC50 in data set [4] (setting [8]) is more than 200 µg/mL. Moreover, in data set [5], the half-maximal effective concentration (EC50) stood at 0.316 µg/mL (≈ 0.69 µM) and the “therapeutic index (TI)” value is more than 632.87.
Molecule `Cc1sc([C@H](CCN2C3CCC2CC(n2c(C)nnc2C(C)C)C3)NC(=O)C2CCC(F)(F)CC2)c(C)c1C` (stereo partly drawn) [Compound 103, 4,4-difluoro-N-[(1S)-3-[exo-3-(3-isopropyl-5-methyl-4H-1,2,4-triazol-4-yl)-8-azabicyclo[3.2.1]octane-8-yl]-1-(3,4,5-trimethylthiophen-2-yl)propyl]cyclohexane-1-carboxamide] gave a half-maximal inhibitory concentration (IC50) in data set [6] of 3470 nM.
For the molecule `O=[N+]([O-])c1ccc2c(c1)Cc1ccccc1-2` [2-Nitroflucrene, reference compound], in data set [7], the “number of revertant colonies (Mean ± SD)” value worked out at 999 ± 145.2.
For the molecule `CC(=O)NC(CCN1CCC(n2c(C)nnc2C(C)C)CC1)c1cccs1` (stereo not drawn) [Compound 2, N-[3-[4-(3-isopropyl-5-methyl-4H-1,2,4-triazol-4-yl)-piperidin-1-yl]-1-(thiophen-2-yl)propyl]acetamide], the IC50 in data set [2] was 32.6 nM. In addition, in data set [3], the “Tm (° C.)” value was 65.23 °C. Besides, the CC50 in data set [4] (setting [8]) was more than 100 µg/mL. Further, in data set [5], the EC50 is 0.326 µg/mL (≈ 0.837 µM) and the “therapeutic index (TI)” value was more than 306.75.
Consider `Cc1nnc(C(C)C)n1C1CCN(CC[C@H](NC(=O)C2CCCC2)c2ccsc2)CC1` [Compound 25, N-[(1S)-3-[4-(3-isopropyl-5-methyl-4H-1,2,4-triazol-4-yl)-piperidin-1-yl]-1-(thiophen-3-yl)propyl]cyclopentane-1-carboxamide], for which, in data set [2], the 50% inhibitory concentration (IC50) turned out to be 37.9 nM. The “Tm (° C.)” value in data set [3] was 62.31 °C. Besides, the CC50 in data set [4] (setting [8]) is more than 200 µg/mL. Moreover, in data set [5], the EC50 turned out to be 0.168 µg/mL (≈ 0.379 µM) and the “therapeutic index (TI)” value is more than 1190.41.
On to `Cc1nnc(C(C)C)n1C1CCN(CC[C@H](NC(=O)C2CCCCC2)c2cccnc2)CC1` [Compound 7, N-[(1S)-3-[4-(3-isopropyl-5-methyl-4H-1,2,4-triazol-4-yl)-piperidin-1-yl]-1-(pyridin-3-yl)propyl]cyclohexane-1-carboxamide], for which, in data set [2], the IC50 turned out to be 35.2 nM. In addition, in data set [3], the “Tm (° C.)” value was found to be 57.21 °C. The CC50 in data set [4] (setting [8]) was more than 100 µg/mL. For the same molecule, in data set [5], it took 2.34 µg/mL (≈ 5.17 µM) to reach a half-maximal effect (EC50) and the “therapeutic index (TI)” value is on record as 50.31.
Consider `Cc1nnc(C(C)C)n1C1CCN(CC[C@H](NC(=O)C2CCCC2)c2cccnc2)CC1` [Compound 9, N-[(1S)-3-[4-(3-isopropyl-5-methyl-4H-1,2,4-triazol-4-yl)-piperidin-1-yl]-1-(pyridin-3-yl)propyl]cyclopentane-1-carboxamide], for which the half-inhibitory concentration (IC50) in data set [2] was 79.3 nM. For the same molecule, the “Tm (° C.)” value in data set [3] was determined as 61.32 °C. Moreover, the CC50 in data set [4] (setting [8]) is more than 100 µg/mL. In data set [5], it took 1.81 µg/mL (≈ 4.13 µM) to reach a half-maximal effect (EC50) and the “therapeutic index (TI)” value is 55.42.
On to `CC(=O)NC(CCN1C2CCC1CC(n1c(C)nnc1C(C)C)C2)c1cccs1` (stereo not drawn) [Compound 4, N-[3-[exo-3-(3-isopropyl-5-methyl-4H-1,2,4-triazol-4-yl)-8-azabicyclo[3.2.1]octane-8-yl]-1-(thiophen-2-yl)propyl]acetamide], for which the half-inhibitory concentration (IC50) in data set [2] was 15 nM. Also, in data set [3], the “Tm (° C.)” value is 65.64 °C. Moreover, in data set [4] (setting [8]), the 50% cytotoxic concentration (CC50) amounted to 42.8 µg/mL (≈ 103 µM). For the same molecule, in data set [5], the EC50 was 1.46 µg/mL (≈ 3.51 µM) and the “therapeutic index (TI)” value stood at 29.29.
In the case of `CCC1CCC(C(=O)N[C@@H](CCN2C3CCC2CC(n2c(C)nnc2C(C)C)C3)c2cccs2)CC1` (stereo partly drawn) [Compound 19], the IC50 in data set [2] came to 21.5 nM. Also, the “Tm (° C.)” value in data set [3] turned out to be 69.20 °C. Besides, the midpoint of cytotoxicity in data set [4], the CC50, lay at 85.7 µg/mL (≈ 168 µM). In data set [5], the midpoint of the response, the EC50, lay at 0.00959 µg/mL (≈ 0.0187 µM) and the “therapeutic index (TI)” value came to 8940.56.
Consider `Cc1nnc(C(C)C)n1C1CCN(CC[C@H](NC(=O)C2CCC(F)(F)CC2)c2ccsc2)CC1` [Compound 21, 4,4-difluoro-N-[(1S)-3-[4-(3-isopropyl-5-methyl-4H-1,2,4-triazol-4-yl)-piperidin-1-yl]-1-(thiophen-3-yl)propyl]cyclohexane-1-carboxamide], for which, in data set [2], the IC50 was found to be 11.9 nM and the “calcium influx inhibition effect in words, versus positive control compounds” value was “comparable to the positive control compounds”. The “Tm (° C.)” value in data set [3] worked out at 64.68 °C. Besides, in data set [4] (setting [8]), the cytotoxic concentration (CC50) was more than 200 µg/mL. For the same molecule, in data set [5], a half-maximal response (EC50) required 0.15 µg/mL (≈ 0.304 µM) and the “therapeutic index (TI)” value is more than 1333.96.
For the molecule `Cc1nnc(C(C)C)n1C1CCN(CC[C@H](NC(=O)C2CCC(F)(F)CC2)c2cccs2)CC1` [Compound 13, 4,4-difluoro-N-[(1S)-3-[4-(3-isopropyl-5-methyl-4H-1,2,4-triazol-4-yl)-piperidin-1-yl]-1-(thiophen-2-yl)propyl]cyclohexane-1-carboxamide], in data set [2], the IC50 came to 3.4 nM and the “calcium influx inhibition effect in words, versus positive control compounds” value was “better than the positive control compounds”. Besides, the “Tm (° C.)” value in data set [3] is 65.32 °C. The 50% cytotoxic concentration (CC50) in data set [4] (setting [8]) is more than 100 µg/mL. In data set [5], the EC50 is 0.183 µg/mL (≈ 0.371 µM) and the “therapeutic index (TI)” value is listed as more than 1093.14.
